Patent publication US7300939B2, “Substituted 1-propiolylpiperazine compounds, their preparation and use” (Gruenenthal GmbH, priority 2005, dated 2007)

target: T1, mGluR5 receptor (Sus scrofa, UniProt I3LUI7); assay: [3H]-MPEP binding in the mGluR5 receptor binding assay (pig brain homogenate); conditions: 10 μM; pig brain homogenate; 5 nM [3H]-MPEP
T1 construct: from tissue; host or cells: pig brain halves without medulla, cerebellum and pons
Procedure: I. Method the Determination of the Inhibition of the [^3H]-MPEP Binding in the mGluR5 Receptor Binding Assay
Pig brain homogenate is prepared by homogenization (Polytron PT 3000, Kinematica AG, 10,000 revolutions per minute 90 seconds) of pig brain halves without medulla, cerebellum and pons in a buffer solution having a pH of 8.0 (30 mM of hepes, Sigma, order no. H3375+1 tablet of Complete to 100 ml, Roche Diagnostics, order no. 1836145) in a ratio of 1:20 (brain weight/volume) and differential centrifugation at 900×g and 40,000×g. In each case 450 μg of protein from brain homogenate are incubated with 5 nM [^3H]-MPEP (Tocris, order no. R1212) (MPEP=2-methyl-6-(3-methoxyphenyl)ethynylpyridine) and the compounds to be investigated (10 μM in the test) in a buffer solution (as above) in 250 μl incubation batches in 96-well microtiter plates at room temperature 60 min.
Thereafter, the batches are filtered with the aid of a Brandel cell harvester (Brandel, Robotic 9600 model) onto Unifilter plates with glass fiber filter mats (Perkin Elmer, order no. 6005177) and then rinsed with buffer solution (as above) 3 times with 250 μl per sample each time. The filter plates are then dried 60 min at 55° C. 30 μl Ultima Gold™ scintillator (Packard BioScience, order no. 6013159) are subsequently added per well and, after 3 hours, the samples are measured on a β-counter (Mikrobeta, Perkin Elmer). The non-specific binding is determined by addition of 10 μM of MPEP (Tocris, order no. 1212).

T1 sequence (I3LUI7 19-1212): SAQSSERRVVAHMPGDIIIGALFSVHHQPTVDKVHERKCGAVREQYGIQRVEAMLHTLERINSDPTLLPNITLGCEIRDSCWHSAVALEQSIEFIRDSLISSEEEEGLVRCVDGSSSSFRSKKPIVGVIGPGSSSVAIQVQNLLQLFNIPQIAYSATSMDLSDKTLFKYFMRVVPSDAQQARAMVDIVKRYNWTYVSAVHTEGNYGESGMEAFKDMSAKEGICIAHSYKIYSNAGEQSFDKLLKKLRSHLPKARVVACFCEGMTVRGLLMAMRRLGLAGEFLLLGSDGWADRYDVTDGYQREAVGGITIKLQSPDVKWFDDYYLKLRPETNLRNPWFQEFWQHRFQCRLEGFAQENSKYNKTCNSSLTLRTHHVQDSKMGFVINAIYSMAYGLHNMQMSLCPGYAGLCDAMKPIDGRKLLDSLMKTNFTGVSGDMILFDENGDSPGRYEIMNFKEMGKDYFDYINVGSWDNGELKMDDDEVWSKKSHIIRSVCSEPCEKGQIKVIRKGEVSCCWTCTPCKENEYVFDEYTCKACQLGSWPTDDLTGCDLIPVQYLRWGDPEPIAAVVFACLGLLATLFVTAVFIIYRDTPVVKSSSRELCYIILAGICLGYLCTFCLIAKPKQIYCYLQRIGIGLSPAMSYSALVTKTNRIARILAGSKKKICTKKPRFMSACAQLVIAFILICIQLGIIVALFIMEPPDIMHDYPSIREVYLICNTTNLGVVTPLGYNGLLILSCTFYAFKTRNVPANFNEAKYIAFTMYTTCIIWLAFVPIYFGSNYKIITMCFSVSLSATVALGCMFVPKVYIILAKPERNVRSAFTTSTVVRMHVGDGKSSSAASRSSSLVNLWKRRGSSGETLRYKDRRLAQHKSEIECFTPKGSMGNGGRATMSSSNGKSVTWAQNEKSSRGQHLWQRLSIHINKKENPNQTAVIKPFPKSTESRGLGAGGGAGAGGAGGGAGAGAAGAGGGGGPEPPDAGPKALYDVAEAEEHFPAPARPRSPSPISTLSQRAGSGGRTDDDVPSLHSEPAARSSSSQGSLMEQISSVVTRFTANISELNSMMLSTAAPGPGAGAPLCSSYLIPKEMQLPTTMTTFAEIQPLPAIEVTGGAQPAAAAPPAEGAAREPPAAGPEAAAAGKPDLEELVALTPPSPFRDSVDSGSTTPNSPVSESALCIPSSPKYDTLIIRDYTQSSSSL

Row | mGluR5-receptor (% inhibition 10 μM) in pigs [%] | Compound
1 | 28 | O=C(C#Cc1ccccc1F)N1CCN(c2nc(-c3ccccc3)ns2)CC1 [CCC3, 4-(3-Phenyl-1,2,4-thiadiazol-5-yl)-1-(3-(2-fluorophenyl)propiolyl)piperazine]
2 | 59 | O=C(C#Cc1cccc(F)c1)N1CCN(c2nc(-c3ccccc3)ns2)CC1 [CCC4, 4-(3-Phenyl-1,2,4-thiadiazol-5-yl)-1-(3-(3-fluorophenyl)propiolyl)piperazine]
3 | 25 | O=C(C#Cc1ccc(F)cc1)N1CCN(c2nc(-c3ccccc3)ns2)CC1 [CCC5, 4-(3-Phenyl-1,2,4-thiadiazol-5-yl)-1-(3-(4-fluorophenyl)propiolyl)piperazine]
4 | 25 | Cc1ccccc1C#CC(=O)N1CCN(c2nc(-c3ccc(F)cc3)ns2)CC1 [CCC8, 4-(3-(4-Fluorophenyl)-1,2,4-thiadiazol-5-yl)-1-(3-(tol-2-yl)propiolyl)piperazine]
5 | 33 | CC(C)(C)c1nsc(N2CCN(C(=O)C#Cc3cccs3)CC2)n1 [CCC16, 4-(3-tert-Butyl-1,2,4-thiadiazol-5-yl)-1-(3-(thiophen-2-yl)propiolyl)piperazine]
6 | 30 | COc1ccc(Br)c(C#CC(=O)N2CCN(c3nccs3)CC2)c1 [CCC23, 4-(Thiazol-2-yl)-1-(3-(2-bromo-5-methoxyphenyl)propiolyl)piperazine]
7 | 93 | Cc1cccc(C#CC(=O)N2CCN(c3nc(C)cs3)CC2)c1 [CCC31, 4-(4-Methylthiazol-2-yl)-1-(3-(tol-3-yl)propiolyl)piperazine]
8 | 43 | Cc1ccc(C#CC(=O)N2CCN(c3ncc(C)s3)CC2)cc1 [CCC33, 4-(5-Methylthiazol-2-yl)-1-(3-(tol-4-yl)propiolyl)piperazine]
9 | 40 | CCOC(=O)c1cccc(C#CC(=O)N2CCN(c3nccs3)CC2)c1 [Example AAA3, 4-(Thiazol-2-yl)-1-(3-(3-carboxyphenyl)propiolyl)piperazine ethyl ester]
10 | 35 | O=C(C#Cc1ccc(O)cc1)N1CCN(c2nccs2)CC1 [Example AAA5, 4-(Thiazol-2-yl)-1-(3-(4-hydroxyphenyl)propiolyl)piperazine]
11 | 54 | Nc1ccccc1C#CC(=O)N1CCN(c2nccs2)CC1 [Example AAA6, 4-(Thiazol-2-yl)-1-(3-(2-aminophenyl)propiolyl)piperazine]
12 | 91 | Nc1cccc(C#CC(=O)N2CCN(c3nccs3)CC2)c1 [Example AAA7, 4-(Thiazol-2-yl)-1-(3-(3-aminophenyl)propiolyl)piperazine]
13 | 65 | Nc1ccc(C#CC(=O)N2CCN(c3nccs3)CC2)cc1 [Example AAA8, 4-(Thiazol-2-yl)-1-(3-(4-aminophenyl)propiolyl)piperazine]
14 | 52 | O=C(C#Cc1ccsc1)N1CCN(c2nccs2)CC1 [Example AAA11, 4-(Thiazol-2-yl)-1-(3-(3-thienyl)propiolyl)piperazine]
15 | 34 | COc1ccccc1C#CC(=O)N1CCN(c2nccs2)CC1 [Example AAA12, 4-(Thiazol-2-yl)-1-(3-(2-methoxyphenyl)propiolyl)piperazine]
16 | 87 | COc1cccc(C#CC(=O)N2CCN(c3nccs3)CC2)c1 [Example AAA13, 4-(Thiazol-2-yl)-1-(3-(3-methoxyphenyl)propiolyl)piperazine]

Row | mGluR5-receptor (% inhibition 10 μM) in pigs [%] | Compound
17 | 34 | COc1ccc(C#CC(=O)N2CCN(c3nccs3)CC2)cc1 [Example AAA14, 4-(Thiazol-2-yl)-1-(3-(4-methoxyphenyl)propiolyl)piperazine]
18 | 54 | N#Cc1ccccc1C#CC(=O)N1CCN(c2nccs2)CC1 [Example AAA15, 4-(Thiazol-2-yl)-1-(3-(2-cyanophenyl)propiolyl)piperazine]
19 | 93 | N#Cc1cccc(C#CC(=O)N2CCN(c3nccs3)CC2)c1 [Example AAA16, 4-(Thiazol-2-yl)-1-(3-(3-cyanophenyl)propiolyl)piperazine]
20 | 86 | O=C(C#Cc1cccc(F)c1)N1CCN(c2nccs2)CC1 [Example AAA22, 4-(Thiazol-2-yl)-1-(3-(3-fluorophenyl)propiolyl)piperazine]
21 | 70 | O=C(C#Cc1ccccc1Cl)N1CCN(c2nccs2)CC1 [Example AAA23, 4-(Thiazol-2-yl)-1-(3-(2-chlorophenyl)propiolyl)piperazine]
22 | 82 | O=C(C#Cc1cccc([N+](=O)[O-])c1)N1CCN(c2nccs2)CC1 [Example AAA28, 4-(Thiazol-2-yl)-1-(3-(3-nitrophenyl)propiolyl)piperazine]
23 | 91 | O=Cc1cccc(C#CC(=O)N2CCN(c3nccs3)CC2)c1 [Example AAA30, 4-(Thiazol-2-yl)-1-(3-(3-formylphenyl)propiolyl)piperazine]
24 | 57 | O=C(C#Cc1ccccn1)N1CCN(c2nccs2)CC1 [Example AAA32, 4-(Thiazol-2-yl)-1-(3-pyrid-2-ylpropiolyl)piperazine]
25 | 50 | O=C(C#Cc1cccnc1)N1CCN(c2nccs2)CC1 [Example AAA33, 4-(Thiazol-2-yl)-1-(3-pyrid-3-ylpropiolyl)piperazine]
26 | 71 | O=C(C#Cc1ccncc1)N1CCN(c2nccs2)CC1 [Example AAA34, 4-(Thiazol-2-yl)-1-(3-pyrid-4-ylpropiolyl)piperazine]
27 | 40 | CC(C)c1cccc(C#CC(=O)N2CCN(c3nccs3)CC2)c1 [Example AAA36, 4-(Thiazol-2-yl)-1-(3-(3-isopropylphenyl)propiolyl)piperazine]
28 | 82 | O=C(C#Cc1ccc2ccccc2c1)N1CCN(c2nccs2)CC1 [Example AAA38, 4-(Thiazol-2-yl)-1-(3-naphth-2-ylpropiolyl)piperazine]
29 | 74 | Cn1ccc2cc(C#CC(=O)N3CCN(c4nccs4)CC3)ccc21 [Example AAA39, 4-(Thiazol-2-yl)-1-(3-(1-methyl-indol-5-yl)propiolyl)piperazine]
30 | 80 | CSc1cccc(C#CC(=O)N2CCN(c3nccs3)CC2)c1 [Example AAA40, 4-(Thiazol-2-yl)-1-(3-(3-methylmercaptophenyl)propiolyl)piperazine]
31 | 78 | N#Cc1cc(C#CC(=O)N2CCN(c3nccs3)CC2)ccc1F [Example AAA41, 4-(Thiazol-2-yl)-1-(3-(3-cyano-4-fluorophenyl)propiolyl)piperazine]
32 | 88 | COCc1cccc(C#CC(=O)N2CCN(c3nccs3)CC2)c1 [Example AAA42, 4-(Thiazol-2-yl)-1-(3-(3-methoxymethylphenyl)propiolyl)piperazine]

Row | Compound | mGluR5-receptor (% inhibition 10 μM) in pigs [%]
33 | O=C(C#Cc1cccc(-c2ccccc2)c1)N1CCN(c2nccs2)CC1 [Example AAA37, 4-(Thiazol-2-yl)-1-(3-biphenyl-3-ylpropiolyl)piperazine] | 45

same assay, conditions: Table II; unit inferred

Row | IC50 [nM] | Compound
34 | 93 | Cc1csc(C#CC(=O)N2CCN(c3nccs3)CC2)c1 [AAA00118, 4-(Thiazol-2-yl)-1-(3-(4-methylthiophen-2-yl)propiolyl)piperazine]
35 | 9 | CC1CN(c2nccs2)CCN1C(=O)C#Cc1cccc(Cl)c1 (stereo not shown) [AAA00119, 2-Methyl-4-(thiazol-2-yl)-1-(3-(3-chlorophenyl)propiolyl)piperazine]
36 | 110 | CC(C)(C)C1CN(c2nccs2)CCN1C(=O)C#Cc1ccccc1 (stereo not shown) [AAA00121, 2-tert-Butyl-4-(thiazol-2-yl)-1-(3-phenylpropiolyl)piperazine]
37 | 19 | CC1CN(c2nccs2)CCN1C(=O)C#Cc1cccc(C#N)c1 (stereo not shown) [AAA00123, 2-Methyl-4-(thiazol-2-yl)-1-(3-(3-cyanophenyl)propiolyl)piperazine]
38 | 10500 | O=C(C#Cc1ccc(F)cc1F)N1CCN(c2nccs2)CC1 [CCC22, 4-(Thiazol-2-yl)-1-(3-(2,4-difluorophenyl)propiolyl)piperazine]
39 | 450 | O=C(C#Cc1ccccc1O)N1CCN(c2nccs2)CC1 [Example AAA4, 4-(Thiazol-2-yl)-1-(3-(2-hydroxyphenyl)propiolyl)piperazine]
40 | 700 | O=C(C#Cc1ccc2[nH]ccc2c1)N1CCN(c2nccs2)CC1 [Example AAA9, 4-(Thiazol-2-yl)-1-(3-(indol-5-yl)propiolyl)piperazine]
41 | 980 | O=C(C#Cc1cccs1)N1CCN(c2nccs2)CC1 [Example AAA10, 4-(Thiazol-2-yl)-1-(3-(2-thienyl)propiolyl)piperazine]
42 | 830 | O=C(C#Cc1ccccc1F)N1CCN(c2nccs2)CC1 [Example AAA21, 4-(Thiazol-2-yl)-1-(3-(2-fluorophenyl)propiolyl)piperazine]
43 | 38 | C=Cc1cccc(C#CC(=O)N2CCN(c3nccs3)CC2)c1 [Example AAA31, 4-(Thiazol-2-yl)-1-(3-(3-ethenylphenyl)propiolyl)piperazine]
